The first experiment concerns the target PKM2 (Homo sapiens, UniProt P14618). As to the kind of experiment: PKM2 Biochemical Assay.
Details: not given
Chain of PKM2 (P14618 whole entry): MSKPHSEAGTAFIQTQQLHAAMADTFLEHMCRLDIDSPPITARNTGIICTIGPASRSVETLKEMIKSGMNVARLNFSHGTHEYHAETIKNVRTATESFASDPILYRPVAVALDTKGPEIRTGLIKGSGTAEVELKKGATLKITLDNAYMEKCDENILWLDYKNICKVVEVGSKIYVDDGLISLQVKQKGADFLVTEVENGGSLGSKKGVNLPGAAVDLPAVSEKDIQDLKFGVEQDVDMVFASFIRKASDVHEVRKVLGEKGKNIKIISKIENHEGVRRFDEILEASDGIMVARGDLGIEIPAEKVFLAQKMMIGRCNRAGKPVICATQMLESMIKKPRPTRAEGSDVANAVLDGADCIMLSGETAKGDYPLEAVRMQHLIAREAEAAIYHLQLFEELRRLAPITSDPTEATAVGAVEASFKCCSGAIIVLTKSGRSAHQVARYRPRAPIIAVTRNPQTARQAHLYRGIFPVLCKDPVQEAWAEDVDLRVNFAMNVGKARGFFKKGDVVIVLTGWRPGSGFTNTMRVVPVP
The term AC50 denotes the midpoint of the concentration-response curve, whichever way the signal moves. `CC(c1ccccc1)N(CC1CCC1)C(=O)c1cc(Br)n[nH]1` (stereo not drawn) [Example 4, 3-bromo-N-(cyclobutylmethyl)-N-(1-phenylethyl)-1H-pyrazole-5-carboxamide] showed an AC50 of 1480 nM.
`COCCCN(Cc1ccccc1Cl)C(=O)c1cc(C(F)(F)F)n[nH]1` [Example 29] displayed a concentration at half-maximal activity (AC50) of 4640 nM.
Regarding `COCCCN(Cc1ccccc1F)C(=O)c1cc(C(F)(F)F)n[nH]1` [Example 30], the activity was half-maximal at 9770 nM (AC50).

Still in this experiment, the particulars now being: % maximum response in a biochemical assay as compared with Fructose 1,6-bisphosphate.
For `N#Cc1cc(C(=O)N(Cc2ccc(O)cc2F)CC2CCC2)[nH]n1` [Example 2, 3-CYANO-N-(CYCLOBUTYLMETHYL)-N-(2-FLUORO-4-HYDROXYBENZYL)-1H-PYRAZOLE-5-CARBOXAMIDE], the “Max. Resp.” value worked out at 39%.
Consider `Nc1cc(C(=O)N(Cc2ccc(O)cc2F)CC2CCC2)[nH]n1` [Example 3, 3-amino-N-(cyclobutylmethyl)-N-(2-fluoro-4-hydroxybenzyl)-1H-pyrazole-5-carboxamide], for which the “Max. Resp.” value is 45%.
On to `CC(c1ccccc1)N(CC1CCC1)C(=O)c1cc(Br)n[nH]1` (stereo not drawn) [Example 4, 3-bromo-N-(cyclobutylmethyl)-N-(1-phenylethyl)-1H-pyrazole-5-carboxamide], for which the “Max. Resp.” value is listed as 52%.
As for `CC(c1ccccc1)N(CC1CCC1)C(=O)c1cc(C(F)(F)F)n[nH]1` (stereo not drawn) [Example 5, 3-trifluoromethyl-N-(cyclobutylmethyl)-N-(1-phenylethyl)-1H-pyrazole-5-carboxamide], the “Max. Resp.” value is recorded as 106%.
With `O=C(c1cc(C(F)(F)F)n[nH]1)N(Cc1cccc2[nH]ccc12)CC1CCC1` [Example 6, N-((1H-indol-4-yl)methyl)-N-(cyclobutylmethyl)-3-(trifluoromethyl)-1H-pyrazole-5-carboxamide], the “Max. Resp.” value is 100%.
Consider `O=C(c1cc(Cl)n[nH]1)N(Cc1cccc2[nH]c(=O)sc12)CC1CCC1` [Example 9, 3-Chloro-N-(cyclobutylmethyl)-N-((2-oxo-2,3-dihydrobenzo[d]thiazol-7-yl)methyl)-1H-pyrazole-5-carboxamide], for which the “Max. Resp.” value amounted to 80%.
As for `O=C(c1cc(Br)n[nH]1)N(Cc1cccc2[nH]c(=O)sc12)CC1CCC1` [Example 10, 3-bromo-N-(cyclobutylmethyl)-N-((2-oxo-2,3-dihydrobenzo[d]thiazol-7-yl)methyl)-1H-pyrazole-5-carboxamide], the “Max. Resp.” value is reported as 127%.
Regarding `O=C(c1cc(Br)n[nH]1)N(Cc1ccc(O)cc1F)CC1CNC1` [Example 11, N-(azetidin-3-ylmethyl)-3-bromo-N-(2-fluoro-4-hydroxybenzyl)-1H-pyrazole-5-carboxamide], the “Max. Resp.” value stood at 61%.
`O=C(c1cc(C(F)(F)F)n[nH]1)N(Cc1cccc2[nH]ccc12)CC1COC1` [Example 12]: the “Max. Resp.” value was found to be 101%.
Regarding `CC(C)(C)CN(Cc1cccc2[nH]ccc12)C(=O)c1cc(C(F)(F)F)n[nH]1` [Example 13], the “Max. Resp.” value came out at 33%.
In the case of `O=C(c1cc(C(F)(F)F)n[nH]1)N(Cc1cccc2c1CCN2)CC1CCC1` [Example 14, N-(cyclobutylmethyl)-N-(indolin-4-ylmethyl)-3-(trifluoromethyl)-1H-pyrazole-5-carboxamide], the “Max. Resp.” value is on record as 81%.
On to `O=C(c1cc(C(F)(F)F)n[nH]1)N(Cc1ccc(O)cc1F)CC1COC1` [Example 15], for which the “Max. Resp.” value is on record as 102%.
With `CCCC(C)N(Cc1ccccc1)C(=O)c1cc(C(F)(F)F)n[nH]1` (stereo not drawn) [Example 16], the “Max. Resp.” value was determined as 22%.
As to `CCCCCN(Cc1ccccc1)C(=O)c1cc(C(F)(F)F)n[nH]1` [Example 19], the “Max. Resp.” value was 76%.
With `O=C(c1cc(C(F)(F)F)n[nH]1)N(Cc1ccccc1F)CC1COC1` [Example 20], the “Max. Resp.” value amounted to 70%.
Turning to `COCCCN(Cc1ccccc1F)C(=O)c1cc(C(F)(F)F)n[nH]1` [Example 23], the “Max. Resp.” value came out at 75%.
Take `CCOCCN(Cc1ccc(O)cc1F)C(=O)c1cc(C(F)(F)F)n[nH]1` [Example 24]: the “Max. Resp.” value was 100%.
Regarding `O=C(c1cc(C(F)(F)F)n[nH]1)N(Cc1ccccc1F)c1ncco1` [Example 25], the “Max. Resp.” value is 35%.
`O=C(c1cc(C(F)(F)F)n[nH]1)N(CCC1CCOC1)Cc1ccccc1F` (stereo not drawn) [Example 26]: the “Max. Resp.” value came out at 99%.
Turning to `O=C(c1cc(C(F)(F)F)n[nH]1)N(Cc1ccccc1Cl)CC1COC1` [Example 27], the “Max. Resp.” value is 47%.
For `COCCCN(Cc1ccccc1Cl)C(=O)c1cc(C(F)(F)F)n[nH]1` [Example 29], the “Max. Resp.” value worked out at 87%.
Turning to `COCCCN(Cc1ccccc1F)C(=O)c1cc(C(F)(F)F)n[nH]1` [Example 30], the “Max. Resp.” value was 72%.
The same measure, in the same setting: the result for `COCCCN(Cc1ccccc1Cl)C(=O)c1cc(C(F)(F)F)n[nH]1` [Example 31] reads 82%; that for `O=C(c1cc(C(F)(F)F)n[nH]1)N(CCC1CCOCC1)Cc1ccccc1Cl` [Example 32], 107%.
On the same count and under the same terms, the result for `O=C(c1cc(C(F)(F)F)n[nH]1)N(CCC1CCOC1)Cc1c(Cl)cccc1Cl` (stereo not drawn) [Example 33] reads 81%; that for `O=C(c1cc(C(F)(F)F)n[nH]1)N(CCC1CCOC1)Cc1ccc(O)cc1F` (stereo not drawn) [Example 34], 109%; that for `O=C(c1cc(C(F)(F)F)n[nH]1)N(Cc1ccccc1Cl)C1CCOCC1` [Example 35], 59%.
As to `O=C(c1cc(C(F)(F)F)n[nH]1)N(CCC1CCCOC1)Cc1ccccc1Cl` (stereo not drawn) [Example 36], the “Max. Resp.” value stood at 88%.
The same measure, in the same setting: with `CC(C)OCCN(Cc1ccccc1Cl)C(=O)c1cc(C(F)(F)F)n[nH]1` [Example 37] the figure was 37%; with `CCOCCCN(Cc1ccccc1Cl)C(=O)c1cc(C(F)(F)F)n[nH]1` [Example 38], 47%; with `O=C(c1cc(C(F)(F)F)n[nH]1)N(CCOC1CCCC1)Cc1ccccc1F` [Example 39], 30%.
In the case of `O=C(c1cc(C(F)(F)F)n[nH]1)N(CCC1CCOC1)Cc1c(F)cccc1F` (stereo not drawn) [Example 40], the “Max. Resp.” value is recorded as 114%.
For `O=C(c1cc(C(F)(F)F)n[nH]1)N(CCC1CCOCC1)Cc1ccccc1F` [Example 41], the “Max. Resp.” value was determined as 118%.
Consider `CCOCCN(Cc1c(Cl)cccc1Cl)C(=O)c1cc(C(F)(F)F)n[nH]1` [Example 42], for which the “Max. Resp.” value is given as 76%.
`O=C(c1cc(C(F)(F)F)n[nH]1)N(CCC1CCOC1)Cc1ccccc1Cl` (stereo not drawn) [Example 43]: the “Max. Resp.” value is reported as 110%.
On to `O=C(c1cc(C(F)(F)F)n[nH]1)N(CCC1CCCCO1)Cc1ccccc1Cl` (stereo not drawn) [Example 44], for which the “Max. Resp.” value was 32%.
In the case of `O=C(c1cc(C(F)(F)F)n[nH]1)N(Cc1ccccc1F)CC1CCOCC1` [Example 45], the “Max. Resp.” value is recorded as 52%.
`O=C(c1cc(C(F)(F)F)n[nH]1)N(CCC1CCCO1)Cc1ccccc1F` (stereo not drawn) [Example 46]: the “Max. Resp.” value was found to be 70%.
Turning to `CO[C@H]1CC[C@H](N(Cc2cccc(F)c2)C(=O)c2cc(C(F)(F)F)n[nH]2)CC1` [Example 48], the “Max. Resp.” value is recorded as 80%.
Regarding `CO[C@H]1CC[C@H](N(Cc2c(F)cccc2F)C(=O)c2cc(C(F)(F)F)n[nH]2)CC1` [Example 49], the “Max. Resp.” value worked out at 122%.
As for `CO[C@H]1CC[C@H](N(Cc2cc(F)ccc2F)C(=O)c2cc(C(F)(F)F)n[nH]2)CC1` [Example 50], the “Max. Resp.” value was determined as 90%.
Consider `CO[C@H]1CC[C@H](N(Cc2cc(F)cc(F)c2)C(=O)c2cc(C(F)(F)F)n[nH]2)CC1` [Example 51], for which the “Max. Resp.” value was found to be 31%.
For `CO[C@H]1CC[C@H](N(Cc2ccccc2Cl)C(=O)c2cc(C(F)(F)F)n[nH]2)CC1` [Example 52], the “Max. Resp.” value is reported as 100%.
Same read-out and setting: the result for `CC(C)O[C@H]1CC[C@H](N(Cc2ccccc2Cl)C(=O)c2cc(C(F)(F)F)n[nH]2)CC1` [Example 53] reads 63%.
In the case of `CCO[C@H]1CC[C@H](N(Cc2ccccc2F)C(=O)c2cc(C(F)(F)F)n[nH]2)CC1` [Example 55], the “Max. Resp.” value stood at 101%.
As to `CO[C@H]1CC[C@H](N(Cc2ncccc2Cl)C(=O)c2cc(C(F)(F)F)n[nH]2)CC1` [Example 56], the “Max. Resp.” value was 48%.
In the case of `O=C(c1cc(C(F)(F)F)n[nH]1)N(CCC1CCC2(CC1)OCCO2)Cc1ccccc1F` [Example 59, N-(2-(1,4-dioxaspiro[4.5]decan-8-yl)ethyl)-N-(2-fluorobenzyl)-3-(trifluoromethyl)-1H-pyrazole-5-carboxamide], the “Max. Resp.” value was determined as 100%.
With `O=C1CCC(CCN(Cc2ccccc2F)C(=O)c2cc(C(F)(F)F)n[nH]2)CC1` [Example 60, N-(2-fluorobenzyl)-N-(2-(4-oxocyclohexyl)ethyl)-3-(trifluoromethyl)-1H-pyrazole-5-carboxamide], the “Max. Resp.” value is 105%.
Consider `O=C(c1cc(C(F)(F)F)n[nH]1)N(CCC1CCS(=O)(=O)C1)Cc1ccccc1F` (stereo not drawn) [Example 63], for which the “Max. Resp.” value turned out to be 87%.
Take `O=C(c1cc(C(F)(F)F)n[nH]1)N(CCC1CCS(=O)(=O)C1)Cc1c(Cl)cccc1Cl` (stereo not drawn) [Example 64]: the “Max. Resp.” value worked out at 71%.
As to `O=C(c1cc(C(F)(F)F)n[nH]1)N(CCC1CCS(=O)(=O)C1)Cc1c(F)cccc1F` (stereo not drawn) [Example 66], the “Max. Resp.” value was determined as 102%.
Regarding `O=C(c1cc(C(F)(F)F)n[nH]1)N(CCC1CCS(=O)(=O)C1)Cc1cccc(F)c1` (stereo not drawn) [Example 67], the “Max. Resp.” value was determined as 95%.
Regarding `O=C(c1cc(C(F)(F)F)n[nH]1)N(CCC1CCS(=O)(=O)C1)Cc1cccc(F)c1F` (stereo not drawn) [Example 68], the “Max. Resp.” value is listed as 103%.
Still for that read-out and setting: the result for `O=C(c1cc(C(F)(F)F)n[nH]1)N(CCC1CCS(=O)(=O)C1)Cc1cc(F)cc(F)c1` (stereo not drawn) [Example 69] reads 74%; that for `O=C(c1cc(C(F)(F)F)n[nH]1)N(CCC1CCS(=O)(=O)C1)Cc1cc(F)ccc1F` (stereo not drawn) [Example 70], 91%; that for `O=C(c1cc(C(F)(F)F)n[nH]1)N(Cc1ccccc1F)CC1CCS(=O)(=O)CC1` [Example 71], 71%.
Turning to `O=C(c1cc(C(F)(F)F)n[nH]1)N(Cc1ccccc1Cl)CC1CCS(=O)(=O)CC1` [Example 72], the “Max. Resp.” value is 22%.
For `O=C(c1cc(C(F)(F)F)n[nH]1)N(CCC1CCSCC1)Cc1ccccc1Cl` [Example 73, N-(2-chlorobenzyl)-N-(2-(tetrahydro-2H-thiopyran-4-yl)ethyl)-3-(trifluoromethyl)-1H-pyrazole-5-carboxamide], the “Max. Resp.” value is 79%.

The experiment is the same for the next values; noted with them: read-out: PKM2 AC50; 2 nM PKM2, 75 μM ADP, 15 μM PEP, Kinase Glo.
For `O=C(c1cc(C(F)(F)F)n[nH]1)N(Cc1cccc2[nH]ccc12)CC1CCC1` [Example 6, N-((1H-indol-4-yl)methyl)-N-(cyclobutylmethyl)-3-(trifluoromethyl)-1H-pyrazole-5-carboxamide], the concentration at half-maximal activity (AC50) came out at 213 nM.
Turning to `O=C(c1cc(C(F)(F)F)n[nH]1)N(Cc1cccc2c1CCN2)CC1CCC1` [Example 14, N-(cyclobutylmethyl)-N-(indolin-4-ylmethyl)-3-(trifluoromethyl)-1H-pyrazole-5-carboxamide], the AC50 is 1700 nM.

Values taken from patent publication US10766865B2, “PKM2 modulators and methods for their use” (TOLERO PHARMACEUTICALS, INC., priority 2012, dated 2020).
